The record followed here is patent US7576094B2, “Spiro derivatives as lipoxygenase inhibitors” (Eli Lilly and Company, priority 2004, dated 2009).

Bounds are passed on as bounds.

Test [1] concerns the target T1, porcine leukocyte 12/15-Lipoxygenase (Sus scrofa, UniProt P16469).
T1 sequence (P16469 1-663): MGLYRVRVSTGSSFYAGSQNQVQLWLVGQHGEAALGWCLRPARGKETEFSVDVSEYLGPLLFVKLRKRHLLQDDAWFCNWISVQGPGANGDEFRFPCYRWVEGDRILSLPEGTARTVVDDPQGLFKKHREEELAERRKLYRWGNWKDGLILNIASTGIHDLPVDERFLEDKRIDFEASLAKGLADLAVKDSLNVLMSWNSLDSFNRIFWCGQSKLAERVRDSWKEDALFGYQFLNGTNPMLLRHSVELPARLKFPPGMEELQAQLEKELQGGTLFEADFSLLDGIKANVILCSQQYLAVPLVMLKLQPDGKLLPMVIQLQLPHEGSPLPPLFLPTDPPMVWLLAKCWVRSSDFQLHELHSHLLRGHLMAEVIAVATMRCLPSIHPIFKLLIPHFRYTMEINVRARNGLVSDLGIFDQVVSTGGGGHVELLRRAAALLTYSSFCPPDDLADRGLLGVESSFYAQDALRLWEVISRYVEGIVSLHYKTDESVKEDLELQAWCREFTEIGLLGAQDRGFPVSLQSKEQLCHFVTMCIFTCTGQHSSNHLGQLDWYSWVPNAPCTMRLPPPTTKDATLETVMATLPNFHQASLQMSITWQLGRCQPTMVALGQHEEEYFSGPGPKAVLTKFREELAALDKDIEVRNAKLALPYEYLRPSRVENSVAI
In words: 12/15-Lipoxygenase Enzyme Assay. Type of test: biochemical. Conditions: 70 μM arachidonic acid, 10 minute incubation at room temperature, FOX reagent, absorbance at 620 nm; read-out: inhibition of 12/15-Lipoxygenase with an IC50. From the text: This procedure was used for measuring the enzymatic activity of porcine leukocyte 12/15-Lipoxygenase using a […] method based on the ferric oxidation of xylenol orange.
• 96 well flat bottom microfilter plates (VWR, Catalog # 62402-933 9295) • Lipoxygenase screening assay buffer (Cayman, Catalog # 760710) • Porcine leukocyte 12/15-Lipoxygenase (Cayman, Catalog # 60300) • Arachidonic Acid (Sigma, Catalog # A3555) • Xylenol orange tetrasodium salt (Aldrich, Catalog # 227854) • Iron (II) sulfate heptahydrate (Sigma, Catalog # F7002) • Sulfuric acid (95-98%) [18M] • Methanol Procedure
Porcine Leukocyte 12/15-Lipoxygenase (Cayman Cat # 60300) was used in this assay. Test compound and/or vehicle was added to 1.3 μL 12/15-Lipoxygenase in 50 mM Tris-HCl buffer, pH 7.4. The reaction was initiated by addition of 70 μM arachidonic acid in Tris-HCl buffer, pH 7.4, and terminated after a 10 minute incubation at room temperature by addition of FOX reagent (25 mM sulfuric acid, 100 μM xylenol orange, 100 μM iron (II) sulfate, methanol:water 9:1). The yellow color of acidified xylenol orange was converted to a blue color by the lipid hydroperoxide-mediated oxidation of Fe^2+ ions and the interaction of the resulting Fe^3+ ions with the dye. The complex was allowed to form during a 1 hour incubation at room temperature with shaking. Absorbance of the Fe^3+ complex was then measured at […] using a spectrophotometer.
Negative controls contained enzyme during the incubation step but substrate was not added until after the FOX reagent. Compounds are screened at 5 concentrations in triplicate starting at 10 μM

In test [2] the target is T2, human recombinant 5-Lipoxygenase (Homo sapiens, UniProt P09917).
T2 sequence (P09917 1-674): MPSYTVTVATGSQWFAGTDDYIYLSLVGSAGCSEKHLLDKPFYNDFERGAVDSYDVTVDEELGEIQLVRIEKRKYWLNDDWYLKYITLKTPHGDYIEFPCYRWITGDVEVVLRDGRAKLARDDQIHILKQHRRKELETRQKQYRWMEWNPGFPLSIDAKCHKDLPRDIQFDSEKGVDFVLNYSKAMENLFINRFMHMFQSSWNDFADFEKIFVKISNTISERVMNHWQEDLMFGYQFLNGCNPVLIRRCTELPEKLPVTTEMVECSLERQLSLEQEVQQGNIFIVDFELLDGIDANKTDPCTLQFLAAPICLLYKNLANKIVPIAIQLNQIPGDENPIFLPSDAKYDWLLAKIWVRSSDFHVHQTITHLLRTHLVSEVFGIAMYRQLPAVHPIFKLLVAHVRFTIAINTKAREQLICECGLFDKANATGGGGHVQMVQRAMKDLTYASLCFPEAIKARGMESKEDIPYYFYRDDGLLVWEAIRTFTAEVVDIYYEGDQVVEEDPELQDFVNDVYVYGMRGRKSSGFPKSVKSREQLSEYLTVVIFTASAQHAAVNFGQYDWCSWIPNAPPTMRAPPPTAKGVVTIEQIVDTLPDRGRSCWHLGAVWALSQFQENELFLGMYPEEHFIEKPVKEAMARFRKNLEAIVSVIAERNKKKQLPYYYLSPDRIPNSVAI
Nature of the test: 5-Lipoxygenase Enzyme Assay. Conditions: 70 μM arachidonic acid, 10 minute incubation at room temperature, FOX reagent, absorbance at 620 nm; read-out: inhibition of 5-Lipoxygenase with an IC50. Type of test: biochemical. The method, boiled down:
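Recombinant human 5-LOX in 50 mM Tris-HCl pH 7.4 was preincubated with compound, then 70 μM arachidonic acid was added for 10 min at room temperature. Hydroperoxide was read by FOX reagent (ferric xylenol orange, 1 h complex formation) as absorbance at 620 nm. Five concentrations in triplicate were tested, starting at 10 μM.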

Test [3] has as its system LTB4 production in human whole blood. Nature of the test: Inhibition of LTB4 Production in Blood. Particulars: 1 h, 20 μM A23187, 60 minutes at 37° C., LTB4 in plasma by ELISA, read-out: protection against LTB4 at an EC50. The test is classed as cell-based. The method, boiled down:
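Citrated human whole blood preincubated 15 min at 37 °C with compound (top final 30 μM, 1:3 dilutions, quadruplicate), then stimulated with 20 μM A23187 for 60 min at 37 °C. Plasma LTB4 quantified by ELISA; IC50 from percent inhibition versus vehicle.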

Test [4] has as its system release of the leukotriene LTB4 from a neutrophil cell line (MPRO cell line). Nature of the test: LTB4-Cell Assay. The test is classed as cell-based. Conditions: Mus musculus, 1 h, read-out: inhibition of LTB4 with an EC50. From the text:
• This procedure was used for measuring the release of the leukotriene LTB4 from a neutrophil cell line using a competitive ELISA technique. Materials and Equipments Materials for Cell Preparation and Experiment • MPRO cell line (ATCC, Catalog # CRL-11422) • Calcium ionophore (A23187) (Sigma, Catalog # C7522) • Nordihydroguaiaretic acid (NDGA) (BioMol ,Catalog # EI101-0001) • Retinoic Acid (all-trans) (ATRA) (Sigma, Catalog # 95152) • Sterile, tissue-culture treated 96-well plates (Corning, Catalog # 3614) Materials for LTB4 ELISA • Precoated (Mouse Anti-Rabbit IgG) EIA 96 Well Strip Plates (Cayman, Catalog # 400004) • Leukotriene B4 AChE Tracer (Cayman Catalog # 420110) • Leukotriene B4 EIA Antiserum (Cayman Catalog # 420112) • Ellman's Reagent (Cayman Catalog # 400050) • EIA Buffer Concentrate (10×) (Cayman Catalog # 400060) • Wash Buffer Concentrate (400×) (Cayman Catalog # 400062) • Plastic plate covers (Cayman Catalog # 400012) Procedure
A mouse promyelocytic cell line (MPRO) was used in this assay. These cells are committed immature neutrophils that can be differentiated into mature neutrophils by treatment with 10 μM all-trans retinoic acid for 72 hours.
Following 72 hours of differentiation, cells were stimulated with 1 μM of a calcium ionophore (A23187) in the presence or absence of test compound or vehicle for 1 hour at 37° C. After this time, supernatant was removed from the cells and the LTB4 levels were determined following manufacturer's instructions, using a Leukotriene B4 EIA kit from Cayman (Cat # 5201 11). The negative controls were media samples from differentiated but un-stimulated cells. The compounds were screened at 5 concentrations in quadruplicate starting at 10 μM.

Consider `Cc1c(O)cc2c(c1C)N(c1ccc(F)cc1)CC1(CCC1)C2` [1′-(4-fluorophenyl)-7′,8′-dimethyl-2′,4′-dihydro-1′H-spiro[cyclobutane-1,3′-quinolin]-6′-ol], for which, in test [1], the IC50 was below 5 µM.

As a reminder, the EC50 is the concentration giving half of the maximal effect. Turning to `Cc1c(C)c2c(c(C)c1O)C(C#N)CC1(CCC1)O2` (stereo not shown) [6-hydroxy-5,7,8-trimethyl-3,4-dihydrospiro[chromene-2,1′-cyclobutane]-4-carbonitrile], in test [2], the IC50 is below 0.3 µM. Besides, the figures for the EC50 in test [3] and in test [4] were below 10 µM and below 5 µM, respectively.

On to `CO/N=C1\CC2(CCC2)Sc2cc(C)c(O)c(C)c21` [6′-hydroxy-5′,7′-dimethylspiro[cyclobutane-1,2′-thiochromen]-4′(3′H)-one O-methyloxime], for which the IC50 in test [2] is below 0.3 µM. Besides, the 50% effective concentration (EC50) in test [3] was below 10 µM; in test [4], below 5 µM.

For `Cc1c(C)c2c(c(C)c1O)C(NO)CC1(CCC1)O2` (stereo not shown) [4-(hydroxyamino)-5,7,8-trimethyl-3,4-dihydrospiro[chromene-2,1′-cyclobutan]-6-ol], the IC50 in test [2] is below 0.3 µM. Further, the values for the EC50 in test [3] and in test [4] were below 10 µM and below 5 µM, respectively.

`CONC1CC2(CCC2)Oc2cc(C)c(O)c(C)c21` (stereo in doubt) [(4S)-4-(methoxyamino)-5,7-dimethyl-3,4-dihydrospiro[chromene-2,1′-cyclobutan]-6-ol]: the IC50 in test [2] was below 0.3 µM. The figures for the EC50 in test [3] and in test [4] were below 10 µM and below 5 µM, respectively.

On to `COC1CC2(CCC2)Oc2cc(C)c(O)c(C)c21` (stereo not shown) [4-methoxy-5,7-dimethyl-3,4-dihydrospiro[chromene-2,1′-cyclobutan]-6-ol], for which the IC50 in test [2] is below 0.3 µM. The EC50 in test [3] is below 10 µM; in test [4], below 5 µM.

Consider `Cc1c(O)cc2c(c1C)OCC1(CCC1)C2` [7,8-dimethylspiro[chroman-3,1′-cyclobutan]-6-ol], for which, in test [2], the IC50 was below 0.3 µM. The EC50 in test [3] is below 10 µM; in test [4], below 5 µM.

In the case of `Cc1c(C)c2c(c(C)c1O)C=C(CO)C1(CCC1)O2` [3-(hydroxymethyl)-5,7,8-trimethylspiro[chromene-2,1′-cyclobutan]-6-ol], the IC50 in test [2] is below 0.3 µM. Further, the EC50 in test [3] is below 10 µM; in test [4], below 5 µM.

As for `CCOC1CC2(CCC2)Oc2cc(C)c(O)c(C)c21` (stereo not shown) [4-ethoxy-5,7-dimethyl-3,4-dihydrospiro[chromene-2,1′-cyclobutan]-6-ol], in test [2], the IC50 is below 0.3 µM. Further, the EC50 was below 10 µM in test [3] and below 5 µM in test [4].

Consider `COC1c2c(C)c(O)c(C)c(C)c2OCC12CCC2` (stereo not shown) [4-methoxy-5,7,8-trimethylspiro[chroman-3,1′-cyclobutan]-6-ol], for which, in test [2], the IC50 is below 0.3 µM. Besides, the EC50 is below 10 µM in test [3] and below 5 µM in test [4].

For `CCO/N=C1\CC2(CCC2)Sc2c(C)c(C)c(O)c(C)c21` [6′-hydroxy-5′,7′,8′-trimethylspiro[cyclobutane-1,2′-thiochromen]-4′(3′H)-one O-ethyloxime], in test [2], the IC50 is below 0.3 µM. For the same compound, the concentration for a half-maximal effect (EC50) is below 10 µM in test [3] and below 5 µM in test [4].

As for `CCCCc1cc(-c2c(C)c(O)c(C)c3c2OC2(CCC2)CC3)no1` [5,7-dimethyl-8-(5-butyl-isoxazol-3-yl)-3,4-dihydrospiro[chromene-2,1′-cyclobutan]-6-ol], the IC50 in test [2] is below 0.3 µM. For the same compound, the EC50 in test [3] is below 10 µM; in test [4], below 5 µM.

On to `Cc1c(O)c(C)c(-c2cnco2)c2c1CCC1(CCC1)O2` [5,7-dimethyl-8-(1,3-oxazol-5-yl)-3,4-dihydrospiro[chromene-2,1′-cyclobutan]-6-ol], for which the IC50 in test [2] is below 0.3 µM. Besides, the figures for the EC50 in test [3] and in test [4] were below 10 µM and below 5 µM, respectively.

Regarding `CCc1cc2c(c(CC)c1O)/C(=N/O)CC1(CCC1)O2` [5,7-diethyl-6-hydroxyspiro[chromene-2,1′-cyclobutan]-4(3H)-one oxime], in test [2], the IC50 was below 0.3 µM. In addition, the results for the half-maximal effective concentration (EC50) in test [3] and in test [4] were below 10 µM and below 5 µM, respectively.

Regarding `Cc1cc2c(c(C)c1O)/C(=N/O)CC1(CCC1)O2` [6-hydroxy-5,7-dimethylspiro[chromene-2,1′-cyclobutan]-4(3H)-one oxime], the IC50 in test [2] was below 0.3 µM. The values for the EC50 in test [3] and in test [4] were below 10 µM and below 5 µM, respectively.

In the case of `CCc1cc2c(c(CC)c1O)C(NOC)CC1(CCC1)O2` (stereo not shown) [4-(methoxyamino)-5,7-diethyl-3,4-dihydrospiro[chromene-2,1′-cyclobutan]-6-ol], in test [2], the IC50 is below 0.3 µM. The values for the EC50 in test [3] and in test [4] were below 10 µM and below 5 µM, respectively.

Consider `CONC1CC2(CCC2)Oc2cc(C)c(O)c(C)c21` (stereo not shown) [4-(methoxyamino)-5,7-dimethyl-3,4-dihydrospiro[chromene-2,1′-cyclobutan]-6-ol], for which the IC50 in test [2] is below 0.3 µM. Besides, the EC50 in test [3] was below 10 µM; in test [4], below 5 µM.
